Measured values published in ChEMBL document CHEMBL2021833, “Calcitonin gene-related peptide (CGRP) receptor antagonists: pyridine as a replacement for a core amide group” (Bioorg Med Chem Lett, 2012).

Experiments:
[1] = target: T1, Calcitonin gene-related peptide type 1 receptor (Homo sapiens, UniProt O60894+Q16602); assay: Displacement of [I125]CGRP from CGRP receptor in human SK-N-MC cell membrane after 2 hrs by gamma or scintillation counting; type: cell membranes
[2] = Permeability across human Caco2 cells; type: ADME, cell-based; details: Caco-2, read-out: permeability
Liver microsomes [3] = assay: Metabolic stability in rat liver microsomes; type: ADME, Microsome
Liver microsomes [4] = assay: Metabolic stability in human liver microsomes; type: ADME, Microsome
[5] = target: T1, Calcitonin gene-related peptide type 1 receptor; assay: Antagonist activity at CGRP receptor in human SK-N-MC cells assessed as inhibition of CGRP-stimulated cAMP production; type: functional, cell-based
[6] = Oral bioavailability in rat; type: ADME, organism-based; details: in vivo
[7] = target: T1, Calcitonin gene-related peptide type 1 receptor; assay: Antagonist activity at CGRP receptor in human SK-N-MC cells assessed as inhibition of CGRP-stimulated cAMP production in presence of plasma; type: functional, cell-based
Plasma = assay: Fraction unbound in po dosed rat plasma; type: ADME, organism-based; details: in vivo

T1 sequence (Q16602 whole entry, one chain of several): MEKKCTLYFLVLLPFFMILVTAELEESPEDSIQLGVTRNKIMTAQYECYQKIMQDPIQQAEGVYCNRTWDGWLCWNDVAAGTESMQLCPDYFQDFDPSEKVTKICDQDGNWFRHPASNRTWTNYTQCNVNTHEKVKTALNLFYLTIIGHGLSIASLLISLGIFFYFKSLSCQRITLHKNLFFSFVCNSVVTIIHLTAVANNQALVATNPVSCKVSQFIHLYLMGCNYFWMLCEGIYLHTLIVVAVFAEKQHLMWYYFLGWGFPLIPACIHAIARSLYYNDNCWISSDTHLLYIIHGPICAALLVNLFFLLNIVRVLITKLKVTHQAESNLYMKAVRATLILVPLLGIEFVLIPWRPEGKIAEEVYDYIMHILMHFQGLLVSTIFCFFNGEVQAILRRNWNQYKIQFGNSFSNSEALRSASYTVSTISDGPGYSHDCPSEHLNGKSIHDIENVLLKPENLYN

Row | Compound | IC50 [1] [nM] | Stability (Liver microsomes [3]) | Stability (Liver microsomes [4]) | IC50 [5] [nM] | other results
1 | Cc1cc(CC(OC(=O)N2CCC(c3cc4ccccc4[nH]c3=O)CC2)c2cc(CN3CCOCC3)ccn2)cc2cn[nH]c12 (stereo not given) | 1.2 | Unstable | Unstable | – | Papp [2]: 9.9 ×10⁻⁶ cm/s
2 | Cc1cc(CC(NC(=O)N2CCC(N3Cc4ccccc4NC3=O)CC2)c2cc3ccccc3cn2)cc2cn[nH]c12 (stereo not given) | 0.82 | – | – | 1 | –
3 | Cc1cc(CC(NC(=O)N2CCC(N3Cc4ccccc4NC3=O)CC2)c2cccc(Br)n2)cc2cn[nH]c12 (stereo not given) | 0.49 | – | – | 0.82 | –
4 | Cc1cc(CC(OC(=O)N2CCC(c3cc4ccccc4[nH]c3=O)CC2)c2cc(CN3CCCC3)ccn2)cc2cn[nH]c12 (stereo not given) | 0.24 | Unstable | Unstable | – | Papp [2]: 4.9 ×10⁻⁶ cm/s
5 | Cc1cc(CC(OC(=O)N2CCC(c3cc4ccccc4[nH]c3=O)CC2)c2cc(CN3CCCCCC3)ccn2)cc2cn[nH]c12 (stereo not given) | 0.095 | Unstable | Unstable | 0.042 | Papp [2]: 2.8 ×10⁻⁶ cm/s
6 | COC(=O)c1ccnc(C(Cc2cc(C)c3[nH]ncc3c2)OC(=O)N2CCC(N3Cc4ccccc4NC3=O)CC2)c1 (stereo not given) | 4.4 | Unstable | Unstable | – | –
7 | Cc1cc(CC(OC(=O)N2CCC(N3Cc4ccccc4NC3=O)CC2)c2cc(-c3ccncc3)ccn2)cc2cn[nH]c12 (stereo not given) | 0.27 | Unstable | Unstable | – | –
8 | Cc1cc(CC(OC(=O)N2CCC(N3Cc4ccccc4NC3=O)CC2)c2ccc3ccccc3n2)cc2cn[nH]c12 (stereo not given) | 1.4 | Unstable | Unstable | 4.8 | –
9 | CCc1ccnc(C(CC(=O)N2CCC(N3Cc4ccccc4NC3=O)CC2)Cc2cc(C)c3[nH]ncc3c2)c1 (stereo not given) | 10 | – | – | 13 | Papp [2]: 14 ×10⁻⁶ cm/s; bioavailability [6]: 2%
10 | Cc1cc(CC(CC(=O)N2CCC(N3Cc4cccc(F)c4NC3=O)CC2)c2ccccn2)cc2cn[nH]c12 (stereo not given) | 35 | – | – | 20 | Papp [2]: 21 ×10⁻⁶ cm/s; bioavailability [6]: 3%
11 | Cc1cc(CC(OC(=O)N2CCC(N3Cc4ccccc4NC3=O)CC2)c2cc3ccccc3cn2)cc2cn[nH]c12 (stereo not given) | 0.46 | Unstable | Unstable | 0.63 | –
12 | Cc1cc(CC(OC(=O)N2CCC(n3c(=O)[nH]c4ncccc43)CC2)c2cc(C(=O)N(C)C)cc(Cl)n2)cc2cn[nH]c12 (stereo not given) | 0.071 | – | – | – | Papp [2]: 1.6 ×10⁻⁶ cm/s; Ki [7]: 0.18 nM; Cp(f) (Plasma): 21%
13 | Cc1cc(CC(NC(=O)N2CCC(N3Cc4ccccc4NC3=O)CC2)c2cccc(-c3ccccc3)n2)cc2cn[nH]c12 (stereo not given) | 12 | – | – | 14 | –
14 | Cc1cc(C[C@@H](NC(=O)N2CCC(N3Cc4cccc(F)c4NC3=O)CC2)C(=O)N2CCC(N3CCCCC3)CC2)cc2cn[nH]c12 | – | – | – | – | Ki [1]: 0.013 nM
15 | Cc1cccnc1C(CC(=O)N1CCC(N2Cc3ccccc3NC2=O)CC1)Cc1cc(C)c2[nH]ncc2c1 (stereo not given) | 4.4 | – | – | 8.2 | –
16 | Cc1cc(CC(OC(=O)N2CCC(N3CCc4ccccc4NC3=O)CC2)c2cc(C(=O)N(C)C)cc(Cl)n2)cc2cn[nH]c12 (stereo not given) | 0.093 | – | – | – | Papp [2]: < 1.5 ×10⁻⁶ cm/s
17 | Cc1ccc(C(CC(=O)N2CCC(N3Cc4ccccc4NC3=O)CC2)Cc2cc(C)c3[nH]ncc3c2)nc1 (stereo not given) | 12 | – | – | 18 | Papp [2]: 6.4 ×10⁻⁶ cm/s; bioavailability [6]: 1%
18 | Cc1cc(CC(NC(=O)N2CCC(N3Cc4ccccc4NC3=O)CC2)c2ccccn2)cc2cn[nH]c12 (stereo not given) | 3.1 | – | – | 4.1 | –
19 | Cc1cc(CC(OC(=O)N2CCC(c3cc4ccccc4[nH]c3=O)CC2)c2cc(CN3CCCCC3)ccn2)cc2cn[nH]c12 (stereo not given) | 0.16 | Unstable | Unstable | 0.1 | Papp [2]: 8.5 ×10⁻⁶ cm/s
20 | Cc1cc(C[C@@H](OC(=O)N2CCC(c3cc4ccccc4[nH]c3=O)CC2)c2cc(C(=O)N(C)C)cc(Cl)n2)cc2cn[nH]c12 | 0.077 | – | – | 0.064 | –
21 | Cc1cc(CC(CC(=O)N2CCC(N3Cc4ccccc4NC3=O)CC2)c2ccc(C=O)cn2)cc2cn[nH]c12 (stereo not given) | 1.1 | – | – | 0.94 | –
22 | Cc1cc(CC(CC(=O)N2CCC(c3cc4ccccc4[nH]c3=O)CC2)c2ccccn2)cc2cn[nH]c12 (stereo not given) | 24 | – | – | 30 | Papp [2]: 3.4 ×10⁻⁶ cm/s
23 | Cc1cccc(C(Cc2cc(C)c3[nH]ncc3c2)NC(=O)N2CCC(N3Cc4ccccc4NC3=O)CC2)n1 (stereo not given) | 3.8 | – | – | 3.4 | –
24 | Cc1cc(CC(CC(=O)N2CCC(N3Cc4ccccc4NC3=O)CC2)c2ccccn2)cc2cn[nH]c12 (stereo not given) | 8.6 | – | – | 8.7 | Papp [2]: 12 ×10⁻⁶ cm/s; bioavailability [6]: 3%
25 | Cc1cc(CC(OC(=O)N2CCC(N3Cc4ccccc4NC3=O)CC2)c2cc(C(=O)N(C)C)ccn2)cc2cn[nH]c12 (stereo not given) | 0.33 | Unstable | Unstable | – | –
26 | Cc1cc(CC(CC(=O)N2CCC(N3Cc4ccccc4NC3=O)CC2)c2ccc(CO)cn2)cc2cn[nH]c12 (stereo not given) | 7.9 | – | – | 6 | –
27 | Cc1cc(CC(OC(=O)N2CCC(c3cc4ccccc4[nH]c3=O)CC2)c2ccccn2)cc2cn[nH]c12 (stereo not given) | 12 | Unstable | Unstable | – | –
28 | Cc1cc(CC(NC(=O)N2CCC(N3Cc4ccccc4NC3=O)CC2)c2ccc3ccccc3n2)cc2cn[nH]c12 (stereo not given) | 2 | – | – | 1.4 | –

Second part, led by results:

Row | IC50 [1] [nM] | Stability (Liver microsomes [3]) | Stability (Liver microsomes [4]) | IC50 [5] [nM] | Compound | other results
29 | 30 | Unstable | Unstable | 28 | Cc1cc(CC(OC(=O)N2CCC(N3Cc4ccccc4NC3=O)CC2)c2cc(C(=O)O)ccn2)cc2cn[nH]c12 (stereo not given) | –
30 | 6.6 | – | – | – | Cc1cc(CC(OC(=O)N2CCC(N3Cc4ccccc4NC3=O)CC2)c2ccccn2)cc2c(CN3CCCCC3)n[nH]c12 (stereo not given) | –
31 | 2 | Unstable | Unstable | 2.1 | Cc1cc(CC(OC(=O)N2CCC(N3Cc4ccccc4NC3=O)CC2)c2cc(CO)ccn2)cc2cn[nH]c12 (stereo not given) | –
32 | 0.39 | – | – | – | Cc1cc(CC(OC(=O)N2CCC(N3Cc4ccccc4NC3=O)CC2)c2ccccn2)cc2c(Cl)n[nH]c12 (stereo not given) | –
33 | 1.8 | – | – | 1.3 | Cc1cc(CC(CC(=O)N2CCC(N3Cc4ccccc4NC3=O)CC2)c2ccc(CN3CCCCC3)cn2)cc2cn[nH]c12 (stereo not given) | Papp [2]: < 1.5 ×10⁻⁶ cm/s
34 | 0.28 | Unstable | Unstable | 0.099 | Cc1cc(CC(OC(=O)N2CCC(N3Cc4ccccc4NC3=O)CC2)c2cc(C(=O)N3CCCCC3)ccn2)cc2cn[nH]c12 (stereo not given) | –
35 | 0.1 | Unstable | Unstable | 0.02 | Cc1cc(CC(OC(=O)N2CCC(N3Cc4ccccc4NC3=O)CC2)c2cc(CN3CCCCC3)ccn2)cc2cn[nH]c12 (stereo not given) | –
36 | 0.24 | – | – | – | Cc1cc(CC(OC(=O)N2CCC(N3Cc4ccccc4NC3=O)CC2)c2ccccn2)cc2c(-c3ccccc3)n[nH]c12 (stereo not given) | –
37 | 3 | Unstable | Unstable | – | Cc1cc(CC(OC(=O)N2CCC(N3Cc4ccccc4NC3=O)CC2)c2cc(C#N)ccn2)cc2cn[nH]c12 (stereo not given) | –
38 | 0.38 | Unstable | Unstable | 0.46 | Cc1cc(CC(OC(=O)N2CCC(N3Cc4ccccc4NC3=O)CC2)c2cccc(Br)n2)cc2cn[nH]c12 (stereo not given) | –
39 | 0.21 | Unstable | Unstable | 0.28 | Cc1cc(CC(OC(=O)N2CCC(N3Cc4ccccc4NC3=O)CC2)c2cc(C=O)ccn2)cc2cn[nH]c12 (stereo not given) | –
40 | 6.8 | – | – | – | Cc1cc(CC(OC(=O)N2CCC(N3Cc4ccccc4NC3=O)CC2)c2ccccn2)cc2c(CN3CCCC3)n[nH]c12 (stereo not given) | –
41 | 1.3 | – | – | – | Cc1cc(CC(OC(=O)N2CCC(N3Cc4ccccc4NC3=O)CC2)c2ccccn2)cc2c(C=O)n[nH]c12 (stereo not given) | –
42 | 1.5 | Unstable | Unstable | 1.9 | Cc1cc(CC(OC(=O)N2CCC(N3Cc4ccccc4NC3=O)CC2)c2ccccn2)cc2cn[nH]c12 (stereo not given) | –
43 | 0.33 | – | – | – | Cc1cc(CC(OC(=O)N2CCC(N3Cc4ccccc4NC3=O)CC2)c2ccccn2)cc2c(Br)n[nH]c12 (stereo not given) | –
44 | 1.9 | – | – | – | Cc1cc(CC(OC(=O)N2CCC(N3Cc4ccccc4NC3=O)CC2)c2ccccn2)cc2c(CN3CCOCC3)n[nH]c12 (stereo not given) | –
